{"source": "paper PMC13047053", "about": "“Crystal structure of human INPP5K with an allosteric inhibitor reveals the structural basis for species specific potency” (Scientific Reports, 2026)", "biological_target": "T1, mouse INPP5K (Mus musculus, UniProt Q8C5L6)", "T1 construct": "mouse INPP5K (aa 1–468, UniProt ID: Q8C5L6); FLAG (N); made in house; host or cells: Expi293 cells (pcDNA3.4, transient)", "T1 sequence (Q8C5L6 1-468)": "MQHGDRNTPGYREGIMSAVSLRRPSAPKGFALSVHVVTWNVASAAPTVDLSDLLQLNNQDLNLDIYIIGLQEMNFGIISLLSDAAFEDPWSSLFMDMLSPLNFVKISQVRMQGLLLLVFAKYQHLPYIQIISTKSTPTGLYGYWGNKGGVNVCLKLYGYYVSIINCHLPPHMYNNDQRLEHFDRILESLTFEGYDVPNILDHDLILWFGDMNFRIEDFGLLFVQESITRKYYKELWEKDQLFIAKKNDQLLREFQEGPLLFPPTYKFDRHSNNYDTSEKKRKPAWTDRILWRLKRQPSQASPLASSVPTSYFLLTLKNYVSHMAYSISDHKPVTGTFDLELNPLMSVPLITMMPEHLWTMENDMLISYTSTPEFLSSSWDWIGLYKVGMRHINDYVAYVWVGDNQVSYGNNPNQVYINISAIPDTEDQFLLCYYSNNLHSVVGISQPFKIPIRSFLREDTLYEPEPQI", "test": "Inorganic phosphate detection assay for phosphatase inhibition", "format": "biochemical", "note": "“Also recorded” adds a separate entry of the source.", "data": [{"compound": "CC(C)c1sc(NC(=O)c2ccccc2)c(C(=O)O)c1-c1ccccc1", "note": "[CPD-1]", "values": [{"measurement": "IC50", "setting": "inorganic phosphate detection assay, 20 µM diC8-PI(3,4,5)P3, 20 min", "result": "> 100", "unit": "µM"}, {"measurement": "inhibition of mouse INPP5K (in words)", "setting": "result in words", "result": "no inhibition; also recorded: inactive"}]}]}
